According to ChEMBL document CHEMBL5385899, “Design, synthesis, spectroscopic characterization, single crystal X-ray analysis, in vitro α-amylase inhibition assay, DPPH free radical evaluation and computational studies of naphtho[2,3-d]imidazole-4,9-dione appended 1,2,3-triazoles” (Eur J Med Chem, 2023):
In brackets after ≈: the same amount, converted by molar mass.

How the values were obtained:
Alpha amylase = biological target: T1, Alpha amylase (Homo sapiens, UniProt P0DUB6); test: Inhibition of alpha amylase (unknown origin) using starch as substrate preincubated for 30 mins followed by substrate addition and measured after 30 mins by absorbance based analysis
T1 sequence (P0DUB6 whole entry): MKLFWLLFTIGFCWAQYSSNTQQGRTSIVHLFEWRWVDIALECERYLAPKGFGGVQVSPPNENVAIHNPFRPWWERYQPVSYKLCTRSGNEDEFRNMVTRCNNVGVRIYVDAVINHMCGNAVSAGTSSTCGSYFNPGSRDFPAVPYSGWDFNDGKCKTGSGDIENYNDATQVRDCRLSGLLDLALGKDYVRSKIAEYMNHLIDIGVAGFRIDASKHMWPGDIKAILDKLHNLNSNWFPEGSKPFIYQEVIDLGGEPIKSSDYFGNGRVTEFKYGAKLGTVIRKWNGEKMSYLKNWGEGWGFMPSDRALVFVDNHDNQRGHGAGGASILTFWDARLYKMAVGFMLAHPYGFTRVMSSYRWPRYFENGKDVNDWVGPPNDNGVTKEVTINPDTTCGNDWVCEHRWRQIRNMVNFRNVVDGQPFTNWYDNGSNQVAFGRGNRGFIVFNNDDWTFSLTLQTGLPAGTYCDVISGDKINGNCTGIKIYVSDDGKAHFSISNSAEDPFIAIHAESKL

[1] = Antioxidant activity assessed as DPPH radical scavenging activity incubated for 30 mins under dark condition; type: functional

SMILES	IC50 (Alpha amylase)	IC50 [1]
COc1ccc(-c2nc3c(n2Cc2cn(-c4ccc(OC)cc4)nn2)C(=O)c2ccccc2C3=O)cc1	25.49 µg/mL (≈ 51.9 µM)	9.55 µg/mL (≈ 19.4 µM)
COc1ccc(-n2cc(Cn3c(-c4ccc(F)cc4)nc4c3C(=O)c3ccccc3C4=O)nn2)cc1	19.87 µg/mL (≈ 41.4 µM)	10.84 µg/mL (≈ 22.6 µM)
COc1ccc(-c2nc3c(n2Cc2cn(-c4ccc(F)cc4)nn2)C(=O)c2ccccc2C3=O)c(OC)c1	23.81 µg/mL (≈ 46.7 µM)	9.92 µg/mL (≈ 19.5 µM)
O=C1c2ccccc2C(=O)c2c1nc(-c1ccc(F)cc1)n2Cc1cn(-c2ccccc2)nn1	26.01 µg/mL (≈ 57.9 µM)	10.32 µg/mL (≈ 23 µM)
COc1ccc(-c2nc3c(n2Cc2cn(-c4ccc(C)cc4)nn2)C(=O)c2ccccc2C3=O)c(OC)c1	21.71 µg/mL (≈ 42.9 µM)	11.19 µg/mL (≈ 22.1 µM)
CCCCn1cc(Cn2c(-c3ccc(OC)cc3)nc3c2C(=O)c2ccccc2C3=O)nn1	24.25 µg/mL (≈ 54.9 µM)	10.76 µg/mL (≈ 24.4 µM)
COc1ccc(-c2nc3c(n2Cc2cn(-c4ccc([N+](=O)[O-])cc4)nn2)C(=O)c2ccccc2C3=O)cc1	18.62 µg/mL (≈ 36.8 µM)	10.88 µg/mL (≈ 21.5 µM)
COc1ccc(-n2cc(Cn3c(-c4ccc(OC)c(OC)c4OC)nc4c3C(=O)c3ccccc3C4=O)nn2)cc1	17.83 µg/mL (≈ 32.3 µM)	8.99 µg/mL (≈ 16.3 µM)
COc1ccc(-c2nc3c(n2Cc2cn(-c4ccc(F)cc4)nn2)C(=O)c2ccccc2C3=O)cc1	24.19 µg/mL (≈ 50.5 µM)	10.58 µg/mL (≈ 22.1 µM)
COc1ccc(-n2cc(Cn3c(-c4cccc(OC)c4)nc4c3C(=O)c3ccccc3C4=O)nn2)cc1	22.73 µg/mL (≈ 46.2 µM)	9.8 µg/mL (≈ 19.9 µM)
COc1cccc(-c2nc3c(n2Cc2cn(-c4ccc([N+](=O)[O-])cc4)nn2)C(=O)c2ccccc2C3=O)c1	21.18 µg/mL (≈ 41.8 µM)	9.2 µg/mL (≈ 18.2 µM)
CCCCn1cc(Cn2c(-c3ccc(OC)cc3OC)nc3c2C(=O)c2ccccc2C3=O)nn1	20.64 µg/mL (≈ 43.8 µM)	10.26 µg/mL (≈ 21.8 µM)
COc1ccc(-c2nc3c(n2Cc2cn(-c4ccccc4)nn2)C(=O)c2ccccc2C3=O)cc1	20.73 µg/mL (≈ 44.9 µM)	10.15 µg/mL (≈ 22 µM)
Cc1cc(C(C)(C)C)c(O)c(C(C)(C)C)c1 [BUTYLATED HYDROXYTOLUENE]	–	9.41 µg/mL (≈ 42.7 µM)

More lines, now with the values ahead:

IC50 (Alpha amylase)	IC50 [1]	SMILES
22.04 µg/mL (≈ 47.2 µM)	9.57 µg/mL (≈ 20.5 µM)	O=C1c2ccccc2C(=O)c2c1nc(-c1ccc(F)cc1)n2Cc1cn(-c2ccc(F)cc2)nn1
24.58 µg/mL (≈ 51.7 µM)	10.14 µg/mL (≈ 21.3 µM)	COc1ccc(-c2nc3c(n2Cc2cn(-c4ccc(C)cc4)nn2)C(=O)c2ccccc2C3=O)cc1
18.42 µg/mL (≈ 38.7 µM)	9.5 µg/mL (≈ 20 µM)	COc1cccc(-c2nc3c(n2Cc2cn(-c4ccc(C)cc4)nn2)C(=O)c2ccccc2C3=O)c1
18.51 µg/mL (≈ 35.5 µM)	9.63 µg/mL (≈ 18.5 µM)	COc1ccc(-c2nc3c(n2Cc2cn(-c4ccccc4)nn2)C(=O)c2ccccc2C3=O)c(OC)c1OC
23.94 µg/mL (≈ 44.4 µM)	10.41 µg/mL (≈ 19.3 µM)	COc1ccc(-c2nc3c(n2Cc2cn(-c4ccc(F)cc4)nn2)C(=O)c2ccccc2C3=O)c(OC)c1OC
20.24 µg/mL (≈ 37.7 µM)	10.07 µg/mL (≈ 18.8 µM)	COc1ccc(-c2nc3c(n2Cc2cn(-c4ccc([N+](=O)[O-])cc4)nn2)C(=O)c2ccccc2C3=O)c(OC)c1
21.11 µg/mL (≈ 47.8 µM)	9.82 µg/mL (≈ 22.2 µM)	CCCCn1cc(Cn2c(-c3cccc(OC)c3)nc3c2C(=O)c2ccccc2C3=O)nn1
22.87 µg/mL (≈ 42.7 µM)	10.19 µg/mL (≈ 19 µM)	COc1ccc(-c2nc3c(n2Cc2cn(-c4ccc(C)cc4)nn2)C(=O)c2ccccc2C3=O)c(OC)c1OC
18.11 µg/mL (≈ 32 µM)	10.1 µg/mL (≈ 17.8 µM)	COc1ccc(-c2nc3c(n2Cc2cn(-c4ccc([N+](=O)[O-])cc4)nn2)C(=O)c2ccccc2C3=O)c(OC)c1OC
18.63 µg/mL (≈ 37.7 µM)	9.69 µg/mL (≈ 19.6 µM)	O=C1c2ccccc2C(=O)c2c1nc(-c1ccc(F)cc1)n2Cc1cn(-c2ccc([N+](=O)[O-])cc2)nn1
19.72 µg/mL (≈ 45.9 µM)	9.41 µg/mL (≈ 21.9 µM)	CCCCn1cc(Cn2c(-c3ccc(F)cc3)nc3c2C(=O)c2ccccc2C3=O)nn1
25.07 µg/mL (≈ 54.3 µM)	10.05 µg/mL (≈ 21.8 µM)	COc1cccc(-c2nc3c(n2Cc2cn(-c4ccccc4)nn2)C(=O)c2ccccc2C3=O)c1
23.49 µg/mL (≈ 46.8 µM)	9.23 µg/mL (≈ 18.4 µM)	CCCCn1cc(Cn2c(-c3ccc(OC)c(OC)c3OC)nc3c2C(=O)c2ccccc2C3=O)nn1
18.41 µg/mL (≈ 38.4 µM)	9.3 µg/mL (≈ 19.4 µM)	COc1cccc(-c2nc3c(n2Cc2cn(-c4ccc(F)cc4)nn2)C(=O)c2ccccc2C3=O)c1
25.44 µg/mL (≈ 51.8 µM)	11.09 µg/mL (≈ 22.6 µM)	COc1ccc(-c2nc3c(n2Cc2cn(-c4ccccc4)nn2)C(=O)c2ccccc2C3=O)c(OC)c1
24.08 µg/mL (≈ 52 µM)	9.61 µg/mL (≈ 20.7 µM)	Cc1ccc(-n2cc(Cn3c(-c4ccc(F)cc4)nc4c3C(=O)c3ccccc3C4=O)nn2)cc1
19.3 µg/mL (≈ 37 µM)	10.65 µg/mL (≈ 20.4 µM)	COc1ccc(-n2cc(Cn3c(-c4ccc(OC)cc4OC)nc4c3C(=O)c3ccccc3C4=O)nn2)cc1
